Results: patent US12209102B2, “Heterocyclic compounds and uses thereof” (Kumquat Biosciences Inc., priority 2022, dated 2025)

Legend:
K-Ras G12D = biological target: T1, K-Ras G12D (Homo sapiens, UniProt P01116, G12D); test: HTRF resonance energy transfer assay, K-Ras G12D / SOS1 interaction; assay type: biochemical; conditions: HTRF assay of Example 5; read-out: IC50 against K-Ras G12D
T1 construct: made in house; host or cells: E. coli BL21 (DE3)
Summary of the method: (§1)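 GST-tagged K-Ras (WT or mutant) bound to anti-GST-Eu donor was mixed with His-hSOS1 bound to anti-6His-XL665 acceptor in ~5 mM HEPES pH 7.4, 150 mM NaCl, 1 mM DTT, 0.05% BSA, 0.0025% Igepal. HTRF (ex 337, em 620/665 nm) was read after ~10 min or longer. IC50 came from the 665/620 ratio over duplicates from 10 μM to 0.01 μM.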

K-Ras G12S = biological target: T2, K-Ras G12S (Homo sapiens, UniProt P01116, G12S); test: HTRF resonance energy transfer assay, K-Ras G12S / SOS1 interaction; assay type: biochemical; conditions: HTRF assay of Example 5; read-out: IC50 against K-Ras G12S
T2 construct: made in house; host or cells: E. coli BL21 (DE3)
Summary of the method: as §1

K-Ras G12V = biological target: T3, K-Ras G12V (Homo sapiens, UniProt P01116, G12V); test: HTRF resonance energy transfer assay, K-Ras G12V / SOS1 interaction; assay type: biochemical; conditions: HTRF assay of Example 5; read-out: IC50 against K-Ras G12V
T3 construct: made in house; host or cells: E. coli BL21 (DE3)
Summary of the method: as §1

K-Ras WT = biological target: T4, K-Ras WT (Homo sapiens, UniProt P01116); test: HTRF resonance energy transfer assay, K-Ras WT / SOS1 interaction; assay type: biochemical; conditions: HTRF assay of Example 5; read-out: IC50 against K-Ras WT
T4 construct: made in house; host or cells: E. coli BL21 (DE3)
Summary of the method: as §1

GP2D cells = test: Ras cellular assay, growth of cells with K-Ras G12D mutation (CellTiter-Glo); assay type: cell-based; conditions: cell growth, Example 9, G12D mutation, read-out: IC50 against GP2D cells
A549 cells = test: Ras cellular assay, growth of cells with K-Ras G12S mutation (CellTiter-Glo); assay type: cell-based; conditions: Homo sapiens, cell growth, Example 9, G12S mutation, read-out: IC50 against A549 cells
Summary of the method: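 A549 cells (K-Ras G12S) in RPMI-1640 with 10% heat-inactivated FBS, seeded e.g. 800 per well in standard or ultra-low-attachment 384-well plates, treated next day with a dilution series (e.g. 10-point, 3-fold). Viability by CellTiter-Glo luminescence about 6 days later; IC50 from four-parameter fit.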

SW620 cells = test: Ras cellular assay, growth of cells with K-Ras G12V mutation (CellTiter-Glo); assay type: cell-based; conditions: Homo sapiens, SW-620; cell growth, Example 9, G12V mutation; read-out: IC50 against SW620 cells
Summary of the method: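 SW620 (K-Ras G12V) cells, e.g. 800/well in RPMI-1640 with 10% heat-inactivated FBS on standard or ultra-low attachment plates, were dosed the day after plating with e.g. a 10-point 3-fold series. Viability by CellTiter-Glo luminescence about 6 days later; IC50 from four-parameter fit.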

T4 sequence (P01116 1-188 isoform P01116-2): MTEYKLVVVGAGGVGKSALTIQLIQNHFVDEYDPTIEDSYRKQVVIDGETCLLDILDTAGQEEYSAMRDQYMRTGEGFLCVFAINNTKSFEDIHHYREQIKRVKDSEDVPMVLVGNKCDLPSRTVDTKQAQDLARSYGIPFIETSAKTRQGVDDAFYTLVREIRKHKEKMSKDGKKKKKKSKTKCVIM
T1 sequence (P01116 1-188 isoform P01116-2 G12D): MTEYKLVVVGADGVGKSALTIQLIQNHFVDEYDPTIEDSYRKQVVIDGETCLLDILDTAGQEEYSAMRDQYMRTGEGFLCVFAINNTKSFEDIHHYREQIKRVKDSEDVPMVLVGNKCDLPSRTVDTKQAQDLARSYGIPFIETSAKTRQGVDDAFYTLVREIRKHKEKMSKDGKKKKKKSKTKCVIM
T2 sequence (P01116 1-188 isoform P01116-2 G12S): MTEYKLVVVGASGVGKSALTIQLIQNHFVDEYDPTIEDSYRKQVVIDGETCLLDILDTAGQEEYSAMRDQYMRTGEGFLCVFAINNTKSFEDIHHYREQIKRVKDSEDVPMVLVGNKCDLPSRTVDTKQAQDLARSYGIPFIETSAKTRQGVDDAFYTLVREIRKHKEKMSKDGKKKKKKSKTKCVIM
T3 sequence (P01116 1-188 isoform P01116-2 G12V): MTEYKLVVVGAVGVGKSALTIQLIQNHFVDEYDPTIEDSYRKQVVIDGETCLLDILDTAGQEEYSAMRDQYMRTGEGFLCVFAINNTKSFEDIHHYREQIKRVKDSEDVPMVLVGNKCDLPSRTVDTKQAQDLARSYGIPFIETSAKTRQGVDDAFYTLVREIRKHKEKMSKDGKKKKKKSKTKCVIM

Row | Structure (SMILES) | IC50 (K-Ras G12D) [nM] | IC50 (K-Ras G12S) [nM] | IC50 (K-Ras G12V) [nM] | IC50 (K-Ras WT) [nM] | IC50 (GP2D cells) [nM] | IC50 (A549 cells) [nM] | IC50 (SW620 cells) [nM]
1 | N#Cc1c(N)sc2c(F)ccc(-c3c(Cl)c4c5c(nc(OC[C@@]67CCCN6C[C@H](F)C7)nc5c3F)N(C3CCC(OC(F)F)C3)CCO4)c12 (stereo partly drawn) [Compound 740, 2-amino-4-(8-chloro-4-(3-(difluoromethoxy)cyclopentyl)-10-fluoro-2-(((2R,7aS)-2-fluorotetrahydro-1H-pyrrolizin-7a(5H)-yl)methoxy)-5,6-dihydro-4H-[1,4]oxazepino[5,6,7-de]quinazolin-9-yl)-7-fluorobenzo[b]thiophene-3-carbonitrile] | < 100 | < 100 | < 100 | < 100 | < 500 | < 5000 | < 5000
2 | CO[C@@H](C)C(=O)N1CCC(N2CCOc3c(Cl)c(-c4ccc(F)c5sc(N)c(C#N)c45)c(F)c4nc(OC[C@@]56CCCN5C[C@H](F)C6)nc2c34)C1 (stereo partly drawn) [Compound 742, 2-amino-4-(8-chloro-10-fluoro-2-(((2R,7aS)-2-fluorotetrahydro-1H-pyrrolizin-7a(5H)-yl)methoxy)-4-(1-((S)-2-methoxypropanoyl)pyrrolidin-3-yl)-5,6-dihydro-4H-[1,4]oxazepino[5,6,7-de]quinazolin-9-yl)-7-fluorobenzo[b]thiophene-3-carbonitrile] | < 100 | < 100 | < 100 | < 100 | < 500 | < 5000 | < 5000
3 | CC(C)(O)C1COc2c(Cl)c(-c3ccc(F)c4sc(N)c(C#N)c34)c(F)c3nc(OC[C@@]45CCCN4C[C@H](F)C5)nc(c23)N1CC(F)F (stereo partly drawn) [Compound 755, 2-amino-4-(8-chloro-4-(2,2-difluoroethyl)-10-fluoro-2-(((2R,7aS)-2-fluorotetrahydro-1H-pyrrolizin-7a(5H)-yl)methoxy)-5-(2-hydroxypropan-2-yl)-5,6-dihydro-4H-[1,4]oxazepino[5,6,7-de]quinazolin-9-yl)-7-fluorobenzo[b]thiophene-3-carbonitrile] | < 100 | < 100 | < 100 | < 100 | < 500 | < 5000 | < 5000
4 | N#Cc1c(N)sc2c(F)ccc(-c3c(Cl)c4c5c(nc(OC[C@@]67CCCN6C[C@H](F)C7)nc5c3F)N(C3CCN(C(=O)C5COC5)C3)CCO4)c12 (stereo partly drawn) [Compound 757, 2-amino-4-(8-chloro-10-fluoro-2-(((2R,7aS)-2-fluorotetrahydro-1H-pyrrolizin-7a(5H)-yl)methoxy)-4-(1-(oxetane-3-carbonyl)pyrrolidin-3-yl)-5,6-dihydro-4H-[1,4]oxazepino[5,6,7-de]quinazolin-9-yl)-7-fluorobenzo[b]thiophene-3-carbonitrile] | < 100 | < 100 | < 100 | < 100 | < 500 | < 5000 | < 5000
5 | Cn1cc(N2CCOc3c(Cl)c(-c4ccc(F)c5sc(N)c(C#N)c45)c(F)c4nc(OC[C@@]56CCCN5C[C@H](F)C6)nc2c34)cn1 [Compound 765, 2-amino-4-(8-chloro-10-fluoro-2-(((2R,7aS)-2-fluorotetrahydro-1H-pyrrolizin-7a(5H)-yl)methoxy)-4-(1-methyl-1H-pyrazol-4-yl)-5,6-dihydro-4H-[1,4]oxazepino[5,6,7-de]quinazolin-9-yl)-7-fluorobenzo[b]thiophene-3-carbonitrile] | < 100 | < 100 | < 100 | < 100 | < 500 | < 5000 | < 5000
6 | C#Cc1c(F)ccc2cc(O)cc(-c3nc4c5c(nc(OC[C@@]67CCCN6C[C@H](F)C7)nc5c3F)N(C3CCOC3)CCN4)c12 (stereo partly drawn) [Compound 771, 5-ethynyl-6-fluoro-4-(4-fluoro-2-(((2R,7aS)-2-fluorotetrahydro-1H-pyrrolizin-7a(5H)-yl)methoxy)-10-(tetrahydrofuran-3-yl)-7,8,9,10-tetrahydro-1,3,6,7,10-pentaazacyclohepta[de]naphthalen-5-yl)naphthalen-2-ol] | < 100 | < 100 | < 100 | < 100 | < 500 | < 5000 | < 5000
7 | N#Cc1c(N)sc2c(F)ccc(-c3c(Cl)c4c5c(nc(OC[C@@]67CCCN6C[C@H](F)C7)nc5c3F)N(C3CCN(C(=O)C[C@@H]5CCCO5)C3)CCO4)c12 (stereo partly drawn) [Compound 777, 2-amino-4-(8-chloro-10-fluoro-2-(((2R,7aS)-2-fluorotetrahydro-1H-pyrrolizin-7a(5H)-yl)methoxy)-4-(1-(2-((S)-tetrahydrofuran-2-yl)acetyl)pyrrolidin-3-yl)-5,6-dihydro-4H-[1,4]oxazepino[5,6,7-de]quinazolin-9-yl)-7-fluorobenzo[b]thiophene-3-carbonitrile] | < 100 | < 100 | < 100 | < 100 | < 500 | < 5000 | < 5000
8 | N#Cc1c(N)sc2c(F)ccc(-c3c(Cl)c4c5c(nc(OC[C@@]67CCCN6C[C@H](F)C7)nc5c3F)N(C3CCN(C(=O)COC(F)F)C3)CCO4)c12 (stereo partly drawn) [Compound 785, 2-amino-4-(8-chloro-4-(1-(2-(difluoromethoxy)acetyl)pyrrolidin-3-yl)-10-fluoro-2-(((2R,7aS)-2-fluorotetrahydro-1H-pyrrolizin-7a(5H)-yl)methoxy)-5,6-dihydro-4H-[1,4]oxazepino[5,6,7-de]quinazolin-9-yl)-7-fluorobenzo[b]thiophene-3-carbonitrile] | < 100 | < 100 | < 100 | < 100 | < 500 | < 5000 | < 5000
9 | N#Cc1c(N)sc2c(F)ccc(-c3c(Cl)c4c5c(nc(OC[C@@]67CCCN6C[C@H](F)C7)nc5c3F)N([C@H]3CCOC3)CCO4)c12 [Compound 793, 2-amino-4-(8-chloro-10-fluoro-2-(((2R,7aS)-2-fluorotetrahydro-1H-pyrrolizin-7a(5H)-yl)methoxy)-4-((S)-tetrahydrofuran-3-yl)-5,6-dihydro-4H-[1,4]oxazepino[5,6,7-de]quinazolin-9-yl)-7-fluorobenzo[b]thiophene-3-carbonitrile] | < 100 | < 100 | < 100 | < 100 | < 500 | < 5000 | < 5000
10 | N#Cc1c(N)sc2c(F)ccc(-c3c(Cl)c4c5c(nc(OC[C@@]67CCCN6C[C@H](F)C7)nc5c3F)N([C@@H]3CCN(C(=O)C(F)F)C3)CCO4)c12 [Compound 796, 2-amino-4-(8-chloro-4-((R)-1-(2,2-difluoroacetyl)pyrrolidin-3-yl)-10-fluoro-2-(((2R,7aS)-2-fluorotetrahydro-1H-pyrrolizin-7a(5H)-yl)methoxy)-5,6-dihydro-4H-[1,4]oxazepino[5,6,7-de]quinazolin-9-yl)-7-fluorobenzo[b]thiophene-3-carbonitrile] | < 100 | < 100 | < 100 | < 100 | < 500 | < 5000 | < 5000
11 | N#Cc1c(N)sc2c(F)ccc(-c3c(Cl)c4c5c(nc(OC[C@@]67CCCN6C[C@H](F)C7)nc5c3F)N(CC3(C#N)CC3)CCO4)c12 [Compound 798, 2-amino-4-(8-chloro-4-((1-cyanocyclopropyl)methyl)-10-fluoro-2-(((2R,7aS)-2-fluorotetrahydro-1H-pyrrolizin-7a(5H)-yl)methoxy)-5,6-dihydro-4H-[1,4]oxazepino[5,6,7-de]quinazolin-9-yl)-7-fluorobenzo[b]thiophene-3-carbonitrile] | < 100 | < 100 | < 100 | < 100 | < 500 | < 5000 | < 5000
12 | N#Cc1c(N)sc2c(F)ccc(-c3c(Cl)c4c5c(nc(OC[C@@]67CCCN6C[C@H](F)C7)nc5c3F)N(C3COCCOC3)CCO4)c12 [Compound 803, 2-amino-4-(8-chloro-4-(1,4-dioxepan-6-yl)-10-fluoro-2-(((2R,7aS)-2-fluorotetrahydro-1H-pyrrolizin-7a(5H)-yl)methoxy)-5,6-dihydro-4H-[1,4]oxazepino[5,6,7-de]quinazolin-9-yl)-7-fluorobenzo[b]thiophene-3-carbonitrile] | < 100 | < 100 | < 100 | < 100 | < 500 | < 5000 | < 5000
